For the assay, the target named is MEK5 PB1 domain binding to MEKK2 (MAP3K2) mutant PB1, human. Nature of the assay: mutant MEKK2 PB1-MEK5 interaction blockers – biochemical, bead multiplex flow cytometry, dose response (AID 1895). The conditions noted are these: Bead-based multiplex flow cytometry; for Ki: measured here: Ki for PB1 binding. In general terms: A flow cytometer gives signals particle by particle.

The source made the active and inactive calls. No rule for the calls is given here.

Turning to `NC(=O)CSc1nnc(Cc2ccc3c(c2)OCO3)o1`, the EC50 is > 30 µM (inactive).
Still for that read-out and setting: with `CCOC(=O)c1c(-c2ccc(-c3ccccc3)cc2)csc1NC(=O)CNCCN(C)C` the figure was 1.09 µM.
The same measure, in the same setting: with `CCCCCc1cc(=O)oc2c(C(CCN3CCCCC3)c3ccc4c(c3)OCO4)c(OC)cc(OC)c12` (configuration not stated) the figure was > 30 µM (inactive); with `COc1ccc(-n2nc3c(N)n[nH]c3cc2=O)cc1`, > 30 µM (inactive).
In the case of `C#CCOCCOCCOCCNc1nc(N2CCN(C(=O)[C@H]([C@@H](C)CC)n3cc([C@@H](N)CC(C)C)nn3)CC2)nc(N2CCN(C(=O)[C@H](Cc3cc4ccccc4[nH]3)n3cc([C@@H](N)CC(C)C)nn3)CC2)n1`, the EC50 is 20.9 µM.
On the same count and under the same terms, with `COc1ccc(Cn2c(SCc3ccc(C)cc3)nc3cc(OC)c(OC)cc3c2=N)cc1Cl` the figure was 2.23 µM.
Same read-out and setting: with `Cc1ccc(-c2c[n+](CC(=O)Nc3nc(-c4ccc(F)cc4)cs3)c3n2CCC3)cc1` the figure was > 30 µM (inactive).
Same read-out and setting: with `O=C(NNc1c2ccccc2nc2ccccc12)c1cc2ccccc2cc1O` the figure was > 30 µM (inactive).
For the compound `CN1CCN(CC(=O)N2CCn3c4c(c5cc(C6CCCCC6)ccc53)CCCC42)CC1` (configuration not stated), the EC50 was > 30 µM (inactive).
Consider `COc1ccccc1N(CN1C(=O)c2ccccc2C1=O)C(=O)c1cccc(C)c1`, for which the EC50 was > 30 µM (inactive).
Still for that read-out and setting: with `CCOC(=O)N1CCN(c2c(N3CCN(c4ccccc4F)CC3)c(=O)c2=O)CC1` the figure was > 30 µM (inactive); with `COCc1c(C#N)c(NCCc2ccccc2)nc(C)c1[N+](=O)[O-]`, > 30 µM (inactive); with `Brc1ccc(N=C/C=C/C=C/Nc2ccc(Br)cc2)cc1`, > 30 µM (inactive).
`C#CCOCCOCCOCCNc1nc(N2CCN(C(=O)[C@H]([C@@H](C)CC)n3cc([C@@H](N)Cc4ccc(O)cc4)nn3)CC2)nc(N2CCN(C(=O)[C@H](Cc3cc4ccccc4[nH]3)n3cc([C@@H](N)C(C)CC)nn3)CC2)n1` (some centres not stated): the EC50 is 10.1 µM.
Still for that read-out and setting: with `CCCOc1ccc2c(c1)C(=NN=C(N)N)c1cc(OCCC)ccc1-2` the figure was 9.98 µM; with `CCN1/C(=C/C(C)=C/c2sc3ccccc3[n+]2CC)Sc2ccccc21`, > 30 µM (inactive).
As to `CCNc1ccc2noc3c2c1C(=O)c1ccccc1-3`, the EC50 is 4.43 µM and the Ki turned out to be 4.34 µM.
Turning to `CCOC(=O)c1c(C)n(-c2ccc(C)cc2)c2ccc(OCC(O)CN3CCN(C)CC3)cc12` (configuration not stated), the EC50 was > 30 µM (inactive).
For `Cc1sc(NC(=O)c2ccccc2)c(C(c2ccccn2)N2CCN(CCO)CC2)c1C` (configuration not stated), the EC50 is > 30 µM (inactive).
The same measure, in the same setting: with `CCN1CCN(CCNC(=O)c2ccc(/C=C3/Sc4ccccc4N(Cc4cccc(C)c4)C3=O)cc2)CC1` the figure was 10.6 µM; with `CCOC(=O)C1=C(c2ccccc2)NC(N)=NC1c1ccc(OCc2ccc(C(=O)OC)cc2)cc1` (configuration not stated), 2.38 µM; with `CCCCCCCCCCOC(=O)Cn1c(COc2ccc(C)cc2)[n+](C)c2ccccc21`, 4.57 µM.
The same measure, in the same setting: with `COc1cc(CNCCc2c[nH]c3ccccc23)ccc1OCc1ccccc1F` the figure was > 30 µM (inactive); with `COc1ccc(-c2csc(N(CCCN(C)C)C(=O)c3ccccc3Cl)n2)cc1`, > 30 µM (inactive).
Regarding `CCN(CC)CCOc1ccc2c(c1)C(=NNC(=O)c1ccccn1)c1cc(OCCN(CC)CC)ccc1-2`, the EC50 was 5.52 µM.
On the same count and under the same terms, with `COc1ccc(CSc2n[nH]c(C)n2)cc1[N+](=O)[O-]` the figure was > 30 µM (inactive); with `COc1ccc2nc(C)cc(N/N=C/c3cccc(OC)c3O)c2c1`, > 30 µM (inactive).
On the same count and under the same terms, with `Cc1ccc(CN2CCSc3ccc(C(=O)NC4CCN(Cc5ccccc5)CC4)cc32)cc1` the figure was 4.92 µM; with `COc1ccccc1N1CCN(S(=O)(=O)c2ccc(Cl)s2)CC1`, > 30 µM (inactive).
Same read-out and setting: with `CN1CCN(c2ccc(NC(=O)c3ccc(-c4ccc(Cl)cc4)o3)cc2)CC1` the figure was > 30 µM (inactive).
Take `Nc1ccc(N)c(C(=O)O)c1`: the EC50 is > 30 µM (inactive).
As to `Cc1cc2ccccc2n1CCNC(=O)c1ccc(Br)o1`, the EC50 result was “inactive” and the Ki is 2.87 µM.
Regarding `CCN1CCN(Cc2ccc(NC(=O)c3ccc(C)c(NC(=O)C(=O)c4c[nH]c5ccccc45)c3)cc2C(F)(F)F)CC1`, the EC50 was > 30 µM (inactive).
With `Nc1cc2nc[nH]c2cc1N`, the EC50 entry was “inactive” and the Ki was determined as 5.77 µM.
Consider `Cc1nc(Nc2cnc(/C=C/c3cc(C(=O)Nc4cccc(C(F)(F)F)c4)ccc3C)cn2)cc(N2CCNCC2)n1`, for which the EC50 is > 30 µM (inactive).
With `CCCCCCCCCCCCCCCC[n+]1ccc(/C=N/O)cc1`, the EC50 was 8.61 µM.
Still for that read-out and setting: with `Nc1ccc(Nc2ccccc2N)cc1` the figure was > 30 µM (inactive).
Still for that read-out and setting: with `COc1ccc(C2NCCc3c2[nH]c2ccccc32)cc1CN1CCc2cc(OC)c(OC)cc2C1C` (configuration not stated) the figure was 13.2 µM; with `CN(C)CCNc1ncnc2c1sc1nc(-c3ccccc3)c3c(c12)CCCC3`, 4.06 µM.
Consider `CCCN1C(=O)/C(=C\C=C2/Sc3ccccc3N2CC)SC1=S`, for which the EC50 entry is “inactive” and the Ki amounted to 2.61 µM.
Turning to `CCN(CC)CCOC(=O)c1ccc(N/C=C(/C#N)c2nc(-c3ccc4c(c3)OCO4)cs2)cc1`, the EC50 is > 30 µM (inactive).
For `CCc1ccc(-c2nn(-c3ccccc3)cc2CSC(=N)N)cc1`, the EC50 is 5.27 µM.
As for `CCCCCc1cc(=O)oc2c(C(CCN3CCCCC3)c3ccc(OC)cc3)c(OC)cc(OC)c12` (configuration not stated), the EC50 was > 30 µM (inactive).
Still for that read-out and setting: with `C#CCOCCOCCOCCNc1nc(N2CCN(C(=O)[C@H](Cc3cc4ccccc4[nH]3)n3cc([C@@H](N)C(C)CC)nn3)CC2)nc(N2CCN(C(=O)[C@H](Cc3cc4ccccc4[nH]3)n3cc([C@@H](N)Cc4ccc(O)cc4)nn3)CC2)n1` (some centres not stated) the figure was 3.78 µM; with `O=C(Nc1ccc(C2=NCCN2)cc1)c1ccc(C(=O)Nc2ccc(C3=NCCN3)cc2)c([N+](=O)[O-])c1`, > 30 µM (inactive).
On to `CCOC(=O)C(C(=O)OCC)c1cc(Br)c2noc3c2c1C(=O)c1ccccc1-3`, for which the EC50 result was “inactive” and the Ki is 2.9 µM.
Consider `COc1cc(/C=N/NC(=O)c2cc3ccccc3cc2O)ccc1OCCN1CCCCC1`, for which the EC50 was > 30 µM (inactive).
Still for that read-out and setting: with `CCn1cc(C(=O)O)c(=O)c2cc(F)c(N3CCN(C(=S)NC(=O)c4ccc(Br)cc4)CC3)cc21` the figure was > 30 µM (inactive); with `Cc1ccccc1OCC(O)CNC1CCC(NCC(O)COc2ccccc2C)CC1` (configuration not stated), > 30 µM (inactive); with `C#CCOCCOCCOCCNc1nc(N2CCN(C(=O)C(Cc3ccc(O)cc3)n3cc(C(N)CC(C)C)nn3)CC2)nc(N2CCN(C(=O)C(Cc3cc4ccccc4[nH]3)n3cc(C(N)C(C)CC)nn3)CC2)n1` (configuration not stated), > 30 µM (inactive).
On to `CCCSc1ncnc2sc(C)c(C)c12`, for which the EC50 was > 30 µM (inactive).
On the same count and under the same terms, with `C#CCOCCOCCOCCNc1nc(N2CCN(C(=O)C(Cc3ccc(O)cc3)n3cc(C(N)CC(C)C)nn3)CC2)nc(N2CCN(C(=O)C(Cc3cc4ccccc4[nH]3)n3cc(C(N)Cc4ccc(O)cc4)nn3)CC2)n1` (configuration not stated) the figure was 12.8 µM; with `COc1ccc2nc(C)cc(N/N=C/c3ccc(F)cc3)c2c1`, > 30 µM (inactive).
Consider `S=c1[nH]nc(-c2ccc(Cl)cc2)n1-c1ccc2c(c1)OCCO2`, for which the EC50 is > 30 µM (inactive).
With `COc1ccc(-c2cc(C#N)nc(N3CCNCC3)n2)cc1`, the EC50 is > 30 µM (inactive).
On the same count and under the same terms, with `CN(C)CCCn1c(SCC(=O)Nc2nc(-c3cccc(Br)c3)cs2)nc2ccccc2c1=O` the figure was > 30 µM (inactive); with `CCN1/C(=C/C=C/C=C/C=C/c2sc3ccccc3[n+]2CC)Sc2ccccc21`, > 30 µM (inactive).

In general, EC50 refers to the midpoint of the concentration-response curve. One may read the Ki as the equilibrium dissociation constant of an inhibitor or competing ligand from its target.

The values above are taken from PubChem BioAssay AID1895 (NMMLSC, 2009).
